Test results reported in patent publication US7501430B2 (ArQule, Inc., priority 2006, dated 2009).

Experiments:
mutant B-RAF = molecular target: T1, mutant B-RAF (Homo sapiens, UniProt P15056, V600E); assay: RAF biochemical assay (MEK-1 phosphorylation, anti-phospho MEK1/2 detection); settings: read-out: Mutant B-RAF IC50
T1 construct: purchased Upstate (Charlottesville, Va.)
Method in brief: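 Detection is by ELISA: after a 30 min room-temperature reaction, plate-captured GST-MEK-1 is probed with anti-phospho MEK1/2, then an AP-tagged secondary antibody with fluorescent Attophos read-out.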

[1] = test system: human mammary epithelial cells (HMEC, normal); assay: MTS cell growth assay, HMEC; assay type: cell-based; settings: 72 hours
Description: (§1) Compounds of the present invention have been tested for activity against a variety of cancer cell lines. The ability of compounds to inhibit cell growth in this assay is correlated with the reduction of dehydrogenase enzyme activity found in metabolically active cells.
(§2) Materials: A375 (a human melanoma cell line that harbors the B-RAF mutation V600E), Colo-205 (a human colon cancer cell line that harbors the B-RAF mutation V600E), DLD1 (a human colon cancer cell line that harbors the K-ras mutation G13D), SK-MEL-2 (a human melanoma cell line that harbors the N-ras mutation Q61R), SK-MEL-28 (a human melanoma cell line that harbors the B-RAF mutation V600E), and SW480 (a human colon cancer cell line that harbors the K-ras mutation G12V) cells from ATCC were maintained at 37° C., 5% CO2 in DMEM media supplemented with 10% fetal bovine serum, penicillin/streptomycin and fungizone (Invitrogen). NCM460 (Incell), a normal colon epithelial cell line, and human mammary epithelial cells (Cambrex) were maintained at 37° C., 5% CO2 in DMEM and HEBM media (Cambrex), respectively.
(§3) Methods: Test compounds were dissolved and diluted to 300× in DMSO then diluted 1:40 in DMEM. Cells were seeded into 96-well tissue culture plates at 2-5×10^3 per well and cultured at 37° C. for 24 h. Cells were incubated with test compounds for 72 hours followed by incubation with tetrazolium compound (3-(4,5-dimethylthiazol-2-yl)-5-(3-carboxymethoxyphenyl)-2-(4-sulfophenyl)-2H-tetrazolium, inner salt; MTS) and the electron coupling reagent, phenazine methosulfate (PMS) for 4 hr. […] The measurement of the absorbance of the formazan was assessed using an ENVISION™ (Perkin Elmer) microplate reader at 492 nm. The calculated IC50 value is the concentration of the test compound that causes a 50% decrease in the absorbance.

[2] = test system: NCM460 normal colon epithelial cell line; assay: MTS cell growth assay, NCM460; assay type: cell-based; settings: Homo sapiens, NCM460 normal cells, 72 hours
Description: as §1, §2, §3

[3] = test system: A375 human melanoma cell line (B-RAF V600E); assay: MTS cell growth assay, A375; assay type: cell-based; settings: A-375, A375 cells, 72 hours
Description: as §1, §2, §3

[4] = test system: Colo-205 human colon cancer cell line (B-RAF V600E); assay: MTS cell growth assay, Colo-205; assay type: cell-based; settings: Colo205 cells, 72 hours
Description: as §1, §2, §3

[5] = test system: SK-MEL-28 human melanoma cell line (B-RAF V600E); assay: MTS cell growth assay, SK-MEL-28; assay type: cell-based; settings: SKMEL28 cells, 72 hours
Description: as §1, §2, §3

[6] = test system: SK-MEL-2 human melanoma cell line (N-ras Q61R); assay: MTS cell growth assay, SK-MEL-2; assay type: cell-based; settings: SKMEL2 cells, 72 hours, read-out: IC50 SKMEL2 NRAS (Q61R)
Description: as §1, §2, §3

[7] = test system: DLD1 human colon cancer cell line (K-ras G13D); assay: MTS cell growth assay, DLD1; assay type: cell-based; settings: DLD-1, DLD1 cells, 72 hours, read-out: IC50 DLD1 KRAS (G13D)
Description: as §1, §2, §3

[8] = test system: SW480 human colon cancer cell line (K-ras G12V); assay: MTS cell growth assay, SW480; assay type: cell-based; settings: SW480 cells, 72 hours, read-out: IC50 SW480 KRAS (G12V)
Description: as §1, §2, §3

T1 sequence (P15056 whole entry V600E): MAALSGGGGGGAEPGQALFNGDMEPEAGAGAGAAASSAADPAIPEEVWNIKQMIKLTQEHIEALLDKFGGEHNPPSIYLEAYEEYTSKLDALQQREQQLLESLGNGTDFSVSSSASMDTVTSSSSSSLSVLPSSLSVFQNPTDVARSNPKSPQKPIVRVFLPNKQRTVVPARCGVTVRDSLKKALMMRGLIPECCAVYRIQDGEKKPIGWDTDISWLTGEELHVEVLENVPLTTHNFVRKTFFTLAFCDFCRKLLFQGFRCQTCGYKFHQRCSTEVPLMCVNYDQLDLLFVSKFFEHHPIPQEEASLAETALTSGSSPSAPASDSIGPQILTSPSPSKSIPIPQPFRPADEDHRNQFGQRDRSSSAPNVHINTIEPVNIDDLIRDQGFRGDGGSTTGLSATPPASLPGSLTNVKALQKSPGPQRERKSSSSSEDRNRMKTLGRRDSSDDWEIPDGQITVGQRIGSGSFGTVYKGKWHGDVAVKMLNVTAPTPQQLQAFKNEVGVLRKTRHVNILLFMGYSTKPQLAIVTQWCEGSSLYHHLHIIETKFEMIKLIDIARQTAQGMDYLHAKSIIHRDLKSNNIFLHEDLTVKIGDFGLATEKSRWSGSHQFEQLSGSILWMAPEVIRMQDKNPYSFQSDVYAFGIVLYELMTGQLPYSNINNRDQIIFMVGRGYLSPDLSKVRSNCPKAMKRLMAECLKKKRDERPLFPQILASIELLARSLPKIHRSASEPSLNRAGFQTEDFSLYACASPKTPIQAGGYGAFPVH

Row | SMILES | IC50 (mutant B-RAF) [nM] | IC50 [3] [nM] | IC50 [4] [nM] | IC50 [5] [nM] | IC50 [6] [nM] | IC50 [7] [nM] | IC50 [8] [nM] | IC50 [1] [nM] | IC50 [2] [nM]
1 | COc1cccc(-c2nc3sccn3c2-c2ccnc(N[C@@H]3CCCN(C(=O)c4ccncc4)C3)n2)c1 [Example 112, N-[(3R)-1-isonicotinoylpiper-idin-3-yl]-4-[6-(3-methoxyphenyl)imidazo[2,1-b][1,3]thiazol-5-yl]pyrimidin-2-amine] | > 5000 | 270 | 330 | 860 | 910 | 3330 | 2740 | 2240 | 4710
2 | COc1ccccc1-c1nc2sccn2c1-c1ccnc(N[C@@H]2CCCN(S(=O)(=O)c3ccc(Cl)cc3)C2)n1 [Example 105, N-{(3R)-1-[(4-chlorophenyl)sulfonyl]piperidin-3-yl}-4-[6-(2-methoxyphenyl)imidazo[2,1-b][1,3]thiazol-5-yl]pyrimidin-2-amine] | 250 | 310 | 380 | 480 | 1100 | 4730 | 1280 | 2720 | 6680
3 | O=S(=O)(c1ccc(Cl)cc1)N1CCC(Nc2nccc(-c3c(-c4cccc(O)c4)nc4sccn34)n2)CC1 [Example 267, 3-{5-[2-({1-[(4-chlorophenyl)sulfonyl]piperidin-4-yl}amino)pyrimidin-4-yl]imidazo[2,1-b][1,3]thiazol-6-yl}phenol] | 31 | 270 | 190 | 380 | 870 | 1760 | 2130 | 1070 | 2050

Second part, led by results:

Row | IC50 (mutant B-RAF) [nM] | IC50 [3] [nM] | IC50 [4] [nM] | IC50 [5] [nM] | IC50 [6] [nM] | IC50 [7] [nM] | IC50 [8] [nM] | SMILES | IC50 [1] [nM] | IC50 [2] [nM]
4 | 9 | 370 | 360 | 800 | 1330 | 4030 | 4400 | CCNC(=O)N1CCC(Nc2nccc(-c3c(-c4cccc(O)c4)nc4sccn34)n2)CC1 [Example 268, N-ethyl-4-({4-[6-(3-hydroxyphenyl)imidazo[2,1-b][1,3]thiazol-5-yl]pyrimidin-2-yl}amino)piperidine-1-carboxamide] | 720 | 2540
5 | > 10000 | 150 | 180 | 670 | 990 | 3080 | 2970 | O=C(c1ccc(F)cc1)N1CCC(Nc2nccc(-c3c(-c4ccc(F)cc4)nc4sccn34)n2)CC1 [Example 289, N-[1-(4-fluorobenzoyl)piperidin-4-yl]-4-[6-(4-fluorophenyl)imidazo[2,1-b][1,3]thiazol-5-yl]pyrimidin-2-amine] | 1240 | 4170
6 | > 3000 |  |  |  |  |  |  | COc1cccc(-c2nc3sccn3c2-c2ccnc(N[C@@H]3CCN(S(=O)(=O)c4ccc(C(=O)O)cc4)C3)n2)c1 [Example 281, 4-{[(3R)-3-({4-[6-(3-methoxyphenyl)imidazo[2,1-b][1,3]thiazol-5-yl]pyrimidin-2-yl}amino)pyrrolidin-1-yl]sulfonyl)benzoic acid] |  | 
